In experiment [1] the test system is HCV genotype 1a subgenomic replicon. The experiment in a line: HCV replicon assay, genotype 1a subgenomic replicon (luciferase). The format is cell-based. To be noted: Hepatitis C virus; genotype 1a replicon stable cell line, luciferase activity measured 48 hours later; read-out: Replicon 1A pEC50 (converted). The protocol: (§1) Protocol for Testing and Data Analysis of Compounds in the HCV Replicon Assay
(§2) Compounds were assayed for activity against HCV using the genotype 1a and 1b subgenomic replicon model systems. Stable cell lines bearing the genotype 1a and 1b replicons were used for screening of compounds. Both replicons are bicistronic and contain the firefly luciferase gene. The ET cell line is stably transfected with RNA transcripts harboring a I389luc-ubi-neo/NS3-3′/ET replicon with firefly luciferase-ubiquitin-neomycin phosphotransferase fusion protein and EMCV-IRES driven NS3-5B polyprotein containing the cell culture adaptive mutations (E1202G; T1280I; K1846T) (Krieger at al, 2001 and unpublished). The genotype 1a replicon is a stable cell line licensed from Apath LLC, modified to contain the firefly luciferase gene. The cells were grown in DMEM, supplemented with 10% fetal calf serum, 2 mM Glutamine, Penicillin (100 IU/mL)/Streptomycin (100 μg/mL), 1× nonessential amino acids, and 250-500 μg/mL G418 (“Geneticin”). They were all available through Life Technologies (Bethesda, Md.). The cells were plated at 5×10^3 cells/well in 384 well plates containing compounds. The final concentration of compounds ranged between 0.03 pM to 50 μm and the final DMSO concentration of 0.5-1%.
(§3) Luciferase activity was measured 48 hours later by adding a Steady glo reagent (Promega, Madison, Wis.). Percent inhibition of replication data was plotted relative to no compound control. Under the same condition, cytotoxicity of the compounds was determined using cell titer glo (Promega, Madison, Ws). EC50s were determined from an 11 point dose response curve using 3-4-fold serial dilution for each compound, which spans a concentration range >1000 fold. The level of inhibition for each compound was determined with Activity Base or with BioAssay plus the Excel XC50 module. Percent inhibition was determined with the following equation where the cross-talk corrected value is the value from the test well, the compound positive control mean is the average value of the wells with no compound present, and the DMSO negative control mean is the average value of the wells with DMSO but no cells present.
(§4) [formula] These normalized values are exported to EC50 where they are plotted against the molar compound concentrations using the standard four parameter logistic equation: […]
A general note: In antiviral work, replicon cells carry a viral genome segment that copies itself.

Experiment [2] concerns HCV genotype 1b subgenomic replicon. The experiment in a line: HCV replicon assay, genotype 1b subgenomic replicon (ET cell line, luciferase). To be noted: Hepatitis C virus; genotype 1b replicon ET cell line, luciferase activity measured 48 hours later; read-out: Replicon 1B pEC50 (converted). The experiment is classed as cell-based. The protocol:
as §1, §2, §3, §4

From patent US9814699B2, “Chemical compounds” (Janssen Pharmaceuticals, Inc., priority 2009, dated 2017) come the findings set out here.

With `COC(=O)NCC(=O)N1CC2(C[C@H]1c1ncc(-c3ccc(-c4ccc(-c5cnc([C@@H]6CCCN6C(=O)[C@@H](NC(=O)OC)C(C)C)[nH]5)cc4)cc3)[nH]1)SCCS2` [Example 14, methyl [(1S)-2-methyl-1-({(2S)-2-[4-(4′-{2-[(8S)-7-({[(methyloxy)carbonyl]amino}acetyl)-1,4-dithia-7-azaspiro[4.4]non-8-yl]-1H-imidazol-4-yl}-4-biphenylyl)-1H-imidazol-2-yl]-1-pyrrolidinyl}carbonyl)propyl]carbamate], the EC50 in experiment [1] was 0.631 nM; in experiment [2], 0.00501 nM.

Take `COC(=O)N[C@H](C(=O)N1CC2(CCOCC2)CC1c1ncc(-c2ccc(-c3ccc(-c4cnc([C@@H]5CCCN5C(=O)[C@@H](NC(=O)OC)C(C)C)[nH]4)cc3)cc2)[nH]1)C(C)C` (stereo partly drawn) [Example 15, methyl [(1S)-2-methyl-1-({(2S)-2-[4-(4′-{2-[2-((2S)-3-methyl-2-{[(methyloxy)carbonyl]amino}butanoyl)-8-oxa-2-azaspiro[4.5]dec-3-yl]-1H-imidazol-4-yl}-4-biphenylyl)-1H-imidazol-2-yl]-1-pyrrolidinyl}carbonyl)propyl]carbamate]: the figures for the EC50 in experiment [1] and in experiment [2] were 0.0631 nM and 0.0158 nM, respectively.

Consider `COC(=O)N[C@H](C(=O)N1CC2(CCS(=O)(=O)CC2)CC1c1ncc(-c2ccc(-c3ccc(-c4cnc([C@@H]5CCCN5C(=O)[C@@H](NC(=O)OC)C(C)C)[nH]4)cc3)cc2)[nH]1)C(C)C` (stereo partly drawn) [Example 16, methyl [(1S)-2-methyl-1-({(2S)-2-[4-(4′-{2-[2-((2S)-3-methyl-2-{[(methyloxy)carbonyl]amino}butanoyl)-8,8-dioxido-8-thia-2-azaspiro[4.5]dec-3-yl]-1H-imidazol-4-yl}-4-biphenylyl)-1H-imidazol-2-yl]-1-pyrrolidinyl}carbonyl)propyl]carbamate], for which the EC50 in experiment [1] is 0.398 nM; in experiment [2] it was 0.0398 nM.

As for `COC(=O)N[C@H](C(=O)N1CCC[C@H]1c1ncc(-c2ccc(-c3ccc(-c4cnc([C@@H]5CC6(CCC(F)(F)CC6)CN5C(=O)[C@@H](NC(=O)OC)C(C)C)[nH]4)cc3)cc2)[nH]1)C(C)C` [Example 17, methyl [(1S)-1-({(2S)-2-[4-(4′-{2-[8,8-difluoro-2-((2S)-3-methyl-2-{[(methyloxy)carbonyl]amino}butanoyl)-2-azaspiro[4.5]dec-3-yl]-1H-imidazol-4-yl}-4-biphenylyl)-1H-imidazol-2-yl]-1-pyrrolidinyl}carbonyl)-2-methylpropyl]carbamate], the EC50 in experiment [1] is 0.0398 nM; in experiment [2], 0.00251 nM.

`COC(=O)N[C@H](C(=O)N1CC2(CCOCC2)C[C@H]1c1nc(-c2ccc(-c3ccc(-c4cnc([C@@H]5CC6(CCOCC6)CN5C(=O)[C@@H](NC(=O)OC)C(C)C)[nH]4)cc3)cc2)c[nH]1)C(C)C` [Example 18, dimethyl (4,4′-biphenyldiylbis{1H-imidazole-4,2-diyl(3S)-8-oxa-2-azaspiro[4.5]decane-3,2-diyl[(2S)-3-methyl-1-oxo-1,2-butanediyl]})biscarbamate]: the EC50 in experiment [1] is 0.02 nM; in experiment [2], 0.0126 nM.

As to `COC(=O)N[C@H](C(=O)N1CC2(CCN(C(=O)OC(C)(C)C)CC2)CC1c1ncc(-c2ccc(-c3ccc(-c4cnc([C@@H]5CCCN5C(=O)[C@@H](NC(=O)OC)C(C)C)[nH]4)cc3)cc2)[nH]1)C(C)C` (stereo partly drawn) [Example 19, 1,1-dimethylethyl 2-{N-[(methyloxy)carbonyl]-L-valyl}-3-(4-{4′-[2-((2S)-1-{N-[(methyloxy)carbonyl]-L-valyl}-2-pyrrolidinyl)-1H-imidazol-4-yl]-4-biphenylyl}-1H-imidazol-2-yl)-2,8-diazaspiro[4.5]decane-8-carboxylate], the EC50 in experiment [1] was 10 nM; in experiment [2], 0.0398 nM.

On to `COC(=O)N[C@H](C(=O)N1CC2(CCNCC2)CC1c1ncc(-c2ccc(-c3ccc(-c4cnc([C@@H]5CCCN5C(=O)[C@@H](NC(=O)OC)C(C)C)[nH]4)cc3)cc2)[nH]1)C(C)C` (stereo partly drawn) [Example 20, methyl [(1S)-2-methyl-1-({(2S)-2-[4-(4′-{2-[2-((2S)-3-methyl-2-{[(methyloxy)carbonyl]amino}butanoyl)-2,8-diazaspiro[4.5]dec-3-yl]-1H-imidazol-4-yl}-4-biphenylyl)-1H-imidazol-2-yl]-1-pyrrolidinyl}carbonyl)propyl]carbamate], for which the EC50 in experiment [1] was above 31.6 nM; in experiment [2], 1.58 nM.

Turning to `COC(=O)N[C@H](C(=O)N1CC2(CCN(C(C)=O)CC2)CC1c1ncc(-c2ccc(-c3ccc(-c4cnc([C@@H]5CCCN5C(=O)[C@@H](NC(=O)OC)C(C)C)[nH]4)cc3)cc2)[nH]1)C(C)C` (stereo partly drawn) [Example 21, methyl [(1S)-1-({(2S)-2-[4-(4′-{2-[8-acetyl-2-((2S)-3-methyl-2-{[(methyloxy)carbonyl]amino}butanoyl)-2,8-diazaspiro[4.5]dec-3-yl]-1H-imidazol-4-yl}-4-biphenylyl)-1H-imidazol-2-yl]-1-pyrrolidinyl}carbonyl)-2-methylpropyl]carbamate], the EC50 is 10 nM in experiment [1] and 0.2 nM in experiment [2].

Consider `COC(=O)N[C@H](C(=O)N1CC2(CCN(C(=O)OC)CC2)CC1c1ncc(-c2ccc(-c3ccc(-c4cnc([C@@H]5CCCN5C(=O)[C@@H](NC(=O)OC)C(C)C)[nH]4)cc3)cc2)[nH]1)C(C)C` (stereo partly drawn) [Example 22, methyl 2-{N-[(methyloxy)carbonyl]-L-valyl}-3-(4-{4′-[2-((2S)-1-{N-[(methyloxy)carbonyl]-L-valyl}-2-pyrrolidinyl)-1H-imidazol-4-yl]-4-biphenylyl}-1H-imidazol-2-yl)-2,8-diazaspiro[4.5]decane-8-carboxylate], for which the EC50 is 0.794 nM in experiment [1] and 0.0158 nM in experiment [2].

In the case of `COC(=O)N[C@H](C(=O)N1CC2(CC1c1ncc(-c3ccc(-c4ccc(-c5cnc([C@@H]6CCCN6C(=O)[C@@H](NC(=O)OC)C(C)C)[nH]5)cc4)cc3)[nH]1)CN(C(=O)OC(C)(C)C)C2)C(C)C` (stereo partly drawn) [Example 23, 1,1-dimethylethyl 6-{N-[(methyloxy)carbonyl]-L-valyl}-7-(4-{4′-[2-((2S)-1-{N-[(methyloxy)carbonyl]-L-valyl}-2-pyrrolidinyl)-1H-imidazol-4-yl]-4-biphenylyl}-1H-imidazol-2-yl)-2,6-diazaspiro[3.4]octane-2-carboxylate], the EC50 is 1.26 nM in experiment [1] and 0.01 nM in experiment [2].

On to `COC(=O)N[C@H](C(=O)N1CC2(CNC2)CC1c1ncc(-c2ccc(-c3ccc(-c4cnc([C@@H]5CCCN5C(=O)[C@@H](NC(=O)OC)C(C)C)[nH]4)cc3)cc2)[nH]1)C(C)C` (stereo partly drawn) [Example 24, methyl [(1S)-2-methyl-1-({(2S)-2-[4-(4′-{2-[6-((2S)-3-methyl-2-{[(methyloxy)carbonyl]amino}butanoyl)-2,6-diazaspiro[3.4]oct-7-yl]-1H-imidazol-4-yl}-4-biphenylyl)-1H-imidazol-2-yl]-1-pyrrolidinyl}carbonyl)propyl]carbamate], for which the EC50 in experiment [1] is 3.16 nM; in experiment [2] it was 0.126 nM.

On to `COC(=O)N[C@H](C(=O)N1CC2(CC1c1ncc(-c3ccc(-c4ccc(-c5cnc([C@@H]6CCCN6C(=O)[C@@H](NC(=O)OC)C(C)C)[nH]5)cc4)cc3)[nH]1)CN(C(C)=O)C2)C(C)C` (stereo partly drawn) [Example 25, methyl [(1S)-1-({(2S)-2-[4-(4′-{2-[2-acetyl-6-((2S)-3-methyl-2-{[(methyloxy)carbonyl]amino}butanoyl)-2,6-diazaspiro[3.4]oct-7-yl]-1H-imidazol-4-yl}-4-biphenylyl)-1H-imidazol-2-yl]-1-pyrrolidinyl}carbonyl)-2-methylpropyl]carbamate], for which the EC50 in experiment [1] is 1.26 nM; in experiment [2], 0.158 nM.

Take `COC(=O)N[C@H](C(=O)N1CC2(CC1c1ncc(-c3ccc(-c4ccc(-c5cnc([C@@H]6CCCN6C(=O)[C@@H](NC(=O)OC)C(C)C)[nH]5)cc4)cc3)[nH]1)CN(C(=O)OC)C2)C(C)C` (stereo partly drawn) [Example 26, methyl 6-{N-[(methyloxy)carbonyl]-L-valyl}-7-(4-{4′-[2-((2S)-{N-[(methyloxy)carbonyl]-L-valyl}-2-pyrrolidinyl)-1H-imidazol-4-yl]-4-biphenylyl}-1H-imidazol-2-yl)-2,6-diazaspiro[3.4]octane-2-carboxylate]: the EC50 was 2 nM in experiment [1] and 0.0501 nM in experiment [2].

`CNC(=O)N1CC2(CC(c3ncc(-c4ccc(-c5ccc(-c6cnc([C@@H]7CCCN7C(=O)[C@@H](NC(=O)OC)C(C)C)[nH]6)cc5)cc4)[nH]3)N(C(=O)[C@@H](NC(=O)OC)C(C)C)C2)C1` (stereo partly drawn) [Example 27, methyl [(1S)-2-methyl-1-({(2S)-2-[4-(4′-{2-[2-[(methylamino)carbonyl]-6-((2S)-3-methyl-2-{[(methyloxy)carbonyl]amino}butanoyl)-2,6-diazaspiro[3.4]oct-7-yl]-1H-imidazol-4-yl}-4-biphenylyl)-1H-imidazol-2-yl]-1-pyrrolidinyl}carbonyl)propyl]carbamate]: the EC50 in experiment [1] is 6.31 nM; in experiment [2] it was 0.251 nM.
